Reference: patent publication US9763994B2, “Composition for promoting wound healing” (INDUSTRY-ACADEMIC COOPERATION FOUNDATION, YONSEI UNIVERSITY, priority 2014, dated 2017)

Columns and labels:
[1] = tested on: β-catenin, keratin 14, α-SMA, collagen I; assay: Western blotting of mouse wound tissue; type: in vivo, C3H mouse; conditions: wound tissue of Test Example 2; versus control; FIG. 3
Protocol: The wound tissue used in Test Example 2 was lysed with RIPA buffer and proteins were isolated on 10% SDS polyacrylamide gel and then transferred onto a membrane. The membrane was blocked using 5% nonfat dry skim milk and then incubated with β-catenin (1:1000), α-SMA (1:1000), keratin 14 (1:1000) and collagen I (1:2000) antibodies. After inducing antigen-antibody reactions by adding enzyme-conjugated secondary antibodies that can recognize the antibodies as antigens, the result was observed using a LAS image analyzer.

[2] = tested on: acute wound in a mouse model; assay: Mouse acute wound healing model (wound closure, H&E, immunohistochemical staining); type: in vivo, C3H mouse; conditions: for re-epithelialization of the acute wound (H&E staining): C3H mouse wound
Protocol: (A) In order to confirm the wound healing promoting effect of the peptide synthesized in Example 1, hair was removed the back of a 7-week-old C3H mouse and a 1.5 cm×1.5 cm sized wound was made. For a control group, 10 μL of a vehicle (50% ethanol, 20% propylene glycol, 30% water) was applied once a day for a period of 12 days. For test groups, 10 μL of the peptide or valproic acid (VPA) dissolved in the vehicle at concentrations of 100 μM and 500 mM, respectively, was applied. The skin tissue of the experimental mouse was fixed in 4% paraformaldehyde, embedded in paraffin and sliced with a thickness of 4 μm. The sliced tissue was deparaffinized, rehydrated and then stained with hematoxylin (violet) and eosin (pink) for observation of histological structure. For immunohistochemical staining, the skin tissue slice was deparaffinized, rehydrated and then incubated with 10 mM sodium citrate buffer at 121° C. for 15 minutes to recover antigenicity. The slice was blocked with albumin to prevent nonspecific antigen-antibody reactions and then antigen-antibody reactions were induced by treating with β-catenin (1:100), keratin 14 (1:1000) and collagen I (1:500) antibodies used as wound healing markers. Subsequently, after inducing antigen-antibody reactions by treating the slice with fluorescence-labeled secondary antibodies that can recognize the antibodies as antigens, the result was observed using a fluorescence microscope.
(B) In order to compare the wound healing promoting effect of the synthesized peptide with that of the existing drug, 10 μL of a vehicle (50% ethanol, 20% propylene glycol, 30% water), 100 μM PTD-DBM or 1.5 μM fibronectin was applied on a 1.5 cm×1.5 cm sized wound of a 7-week-old C3H mouse once a day for a period of 12 days.

collagen [3] = assay: Collagen staining of mouse acute wound tissue (Masson's trichrome, picrosirius red, van Gieson); type: in vivo, C3H mouse; conditions: wound tissue of Test Example 2; FIG. 4A
Protocol: (A) The mouse tissue used in Test Example 2 was fixed in 4% paraformaldehyde, embedded in paraffin and sliced with a thickness of 4 μm. The sliced tissue was deparaffinized, rehydrated and then subjected to van Gieson staining, Masson's trichrome staining and picrosirius red staining in order to evaluate the degree of collagen synthesis. Van Gieson staining was conducted by immersing the slide in Weigert's solution for 10 minutes and then in picro fuchsin solution for 2 minutes. Masson's trichrome staining was conducted by immersing the slide in Weigert's iron hematoxylin solution for 10 minutes and then in Biebrich scarlet/acid fuchsin and aniline blue for 5 minutes, respectively. Picrosirius red staining was conducted by immersing the slide in Weigert's solution for 8 minutes and then in picrosirius red for 1 hour.

collagen [4] = assay: Hydroxproline assay of mouse acute wound tissue; type: in vivo, C3H mouse; conditions: wound tissue of Test Example 2; absorbance at 550 nm; FIG. 4B
Protocol: (B) The tissue used in Test Example 2 was dried in an incubator at 60° C. and then hydrolyzed at 110° C. with 6 N HCl. After adding chloramine T and Ehrlich's reagent to the hydrolyzed tissue, absorbance was measured at 550 nm using the FLUOstar OPTIMA luminometer.

fibroblasts = assay: Immunocytochemical staining of fibroblasts (peptide infiltration, β-catenin); type: cell-based; conditions: FIG. 1
Protocol: (§1) For immunocytochemical staining, keratinocytes or fibroblasts were cultured on a 24-well plate and fixed in 4% paraformaldehyde for 15 minutes. After treating with 0.1% Triton X-100 for 15 minutes so that antibodies can permeate well and blocking with albumin so as to prevent nonspecific antigen-antibody reactions, antigen-antibody reactions were induced by treating with β-catenin antibodies. Then, after inducing antigen-antibody reactions by treating with fluorescence-labeled secondary antibodies that can recognize the antibodies as antigens, the result was observed under a fluorescence microscope.

keratinocytes = assay: Immunocytochemical staining of keratinocytes (peptide infiltration, β-catenin); type: cell-based; conditions: FIG. 1
Protocol: as §1

[5] = 10 μL topical once a day for 12 days, peptide 100 μM, VPA 500 mM

Compound | wound healing markers β-catenin, keratin 14, α-SMA or collagen I (western blotting) [1] | re-epithelialization of the acute wound (H&E staining) [2, 5] | collagen in acute wound tissue (Masson's trichrome, picrosirius red and van Gieson staining) (collagen [3]) | collagen in acute wound tissue (hydroxproline assay) (collagen [4]) | wound healing effect compared with fibronectin ([2]; 100 μM PTD-DBM vs 1.5 μM fibronectin, 10 μL once a day for 12 days, C3H mouse, FIG. 2B) | healing of acute wound ([2]; 1.5 cm×1.5 cm wound, 7-week-old C3H mouse, 10 μL topical once a day for 12 days, peptide 100 μM, VPA 500 mM, FIGS. 2A and 2B) | β-catenin (fibroblasts) | β-catenin (keratinocytes)
CCCC(CCC)C(=O)O [VPA, valproic acid, reference compound] | increased as compared to the control | quick re-epithelialization | increased collagen | increased collagen |  |  |  | 
RRRRRRRRGGGGRKTGHQICKFRKCK-(FITC) [PTD-DBM] | increased as compared to the control | quick re-epithelialization | increased collagen | increased collagen | excellent when compared with that of fibronectin | could quickly heal the acute wound | increased β-catenin in a concentration-dependent manner | increased β-catenin in a concentration-dependent manner
